Results taken from ChEMBL document CHEMBL4808217, “Design, Synthesis, and Characterization of 4-Aminoquinazolines as Potent Inhibitors of the G Protein-Coupled Receptor Kinase 6 (GRK6) for the Treatment of Multiple Myeloma” (J Med Chem, 2021).

Tests used:
[1] = target: Serine/threonine-protein kinase Chk2 (Homo sapiens, UniProt O96017); assay: Inhibition of recombinant human CHK2 (5 to end residues) using KKKVSRSGLYRSPSMPENLNRPR as substrate incubated for 40 mins in presence of [gamma-33ATP] by scintillation counting based radiometry assay
[2] = target: T1, G protein-coupled receptor kinase 3 (Homo sapiens, UniProt P35626); assay: Inhibition of human GRK3 using casein as substrate in presence of [gamma33P]ATP by radiometric hotspot kinase assay
T1 sequence (P35626 whole entry): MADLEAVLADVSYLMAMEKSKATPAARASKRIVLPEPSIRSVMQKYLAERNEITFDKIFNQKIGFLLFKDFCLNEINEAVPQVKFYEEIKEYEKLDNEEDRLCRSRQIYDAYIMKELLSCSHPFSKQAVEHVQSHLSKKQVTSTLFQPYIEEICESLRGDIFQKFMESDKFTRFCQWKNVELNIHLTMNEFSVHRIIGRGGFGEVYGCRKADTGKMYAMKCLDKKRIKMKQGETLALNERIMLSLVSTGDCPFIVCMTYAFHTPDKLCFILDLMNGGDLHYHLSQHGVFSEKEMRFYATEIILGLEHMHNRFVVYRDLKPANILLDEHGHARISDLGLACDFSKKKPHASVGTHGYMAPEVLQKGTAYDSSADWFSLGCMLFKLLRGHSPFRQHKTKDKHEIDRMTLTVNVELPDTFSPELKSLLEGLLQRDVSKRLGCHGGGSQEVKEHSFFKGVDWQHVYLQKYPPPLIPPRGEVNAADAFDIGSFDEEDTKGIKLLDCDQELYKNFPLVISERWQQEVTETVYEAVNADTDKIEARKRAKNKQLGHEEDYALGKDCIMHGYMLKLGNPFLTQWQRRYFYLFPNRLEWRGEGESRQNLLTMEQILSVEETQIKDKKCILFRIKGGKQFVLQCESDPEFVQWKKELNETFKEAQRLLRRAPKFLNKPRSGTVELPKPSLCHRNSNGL

[3] = target: G protein-coupled receptor kinase 4 (Homo sapiens, UniProt P32298); assay: Inhibition of human GRK4 using casein as substrate in presence of [gamma33P]ATP by radiometric hotspot kinase assay
[4] = target: T2, G protein-coupled receptor kinase 6 (Homo sapiens, UniProt P43250); assay: Inhibition of human GRK6 using casein as substrate in presence of [gamma33P]ATP by radiometric hotspot kinase assay
[5] = target: T3, Beta-adrenergic receptor kinase 1 (Homo sapiens, UniProt P25098); assay: Inhibition of human GRK2 using casein as substrate in presence of [gamma33P]ATP by radiometric hotspot kinase assay
T3 sequence (P25098 whole entry): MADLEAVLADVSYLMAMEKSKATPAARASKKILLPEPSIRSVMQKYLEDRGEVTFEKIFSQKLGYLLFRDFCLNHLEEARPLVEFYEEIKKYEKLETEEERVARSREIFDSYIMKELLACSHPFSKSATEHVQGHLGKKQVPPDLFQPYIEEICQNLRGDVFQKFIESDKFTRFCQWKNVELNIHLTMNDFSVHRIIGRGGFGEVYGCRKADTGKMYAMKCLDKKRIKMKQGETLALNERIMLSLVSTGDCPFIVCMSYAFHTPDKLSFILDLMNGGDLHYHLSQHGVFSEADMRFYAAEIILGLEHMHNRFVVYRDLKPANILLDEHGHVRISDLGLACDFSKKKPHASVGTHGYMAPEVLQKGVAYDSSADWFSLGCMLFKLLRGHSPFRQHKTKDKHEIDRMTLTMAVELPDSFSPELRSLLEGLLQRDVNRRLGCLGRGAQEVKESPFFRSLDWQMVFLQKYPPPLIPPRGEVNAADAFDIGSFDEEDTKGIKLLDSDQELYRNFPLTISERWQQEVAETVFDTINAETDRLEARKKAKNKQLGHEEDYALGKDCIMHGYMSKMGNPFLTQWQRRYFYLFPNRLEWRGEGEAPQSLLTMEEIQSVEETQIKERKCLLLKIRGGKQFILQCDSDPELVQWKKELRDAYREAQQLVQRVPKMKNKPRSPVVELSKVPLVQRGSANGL

Aurora kinase A = target: T4, Aurora kinase A (Homo sapiens, UniProt O14965); assay: Inhibition of recombinant full length human Aurora A using LRRASLG as substrate incubated for 40 mins in presence of [gamma-33ATP] by radiometric scintillation counting method
T4 sequence (O14965 whole entry): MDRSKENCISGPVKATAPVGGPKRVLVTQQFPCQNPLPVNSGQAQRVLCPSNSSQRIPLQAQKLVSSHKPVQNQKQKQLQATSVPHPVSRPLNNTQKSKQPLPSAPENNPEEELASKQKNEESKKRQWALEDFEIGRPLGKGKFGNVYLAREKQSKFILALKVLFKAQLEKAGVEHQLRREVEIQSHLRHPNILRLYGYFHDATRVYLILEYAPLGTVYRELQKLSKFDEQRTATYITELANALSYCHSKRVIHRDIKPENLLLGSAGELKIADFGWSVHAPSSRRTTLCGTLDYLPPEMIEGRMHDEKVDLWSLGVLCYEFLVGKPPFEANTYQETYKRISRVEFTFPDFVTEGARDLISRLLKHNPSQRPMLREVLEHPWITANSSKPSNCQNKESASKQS

[6] = target: Tyrosine-protein kinase JAK2 (Homo sapiens, UniProt O60674); assay: Inhibition of recombinant human JAK2 (808 to end residues) using KTFCGTPEYLAPE as substrate incubated for 40 mins in presence of [gamma33P]ATP by radiometric scintillation counting analysis
Focal adhesion kinase 1 = Focal adhesion kinase 1 (Homo sapiens, UniProt Q05397); assay: Inhibition of recombinant human FAK (411 to 686 residues) using EEEEYEEEEEEYY as substrate incubated for 40 mins in presence of [gamma-33ATP] by scintillation counting based radiometry assay
[7] = target: T2, G protein-coupled receptor kinase 6; assay: Inhibition of recombinant full-length human GRK6 using casein as substrate measured after 80 mins in presence of [gamma33P]ATP by radiometric scintillation counting method
[8] = target: Death-associated protein kinase 3 (Homo sapiens, UniProt O43293); assay: Inhibition of recombinant human ZIPK (1 to 290 residues) using KKLNRTLSFAEPG substrate incubated for 40 mins in presence of [gamma33P]ATP by scintillation counting based radiometry assay
Sequence of Death-associated protein kinase 3 (O43293 whole entry, the tested form may be a part): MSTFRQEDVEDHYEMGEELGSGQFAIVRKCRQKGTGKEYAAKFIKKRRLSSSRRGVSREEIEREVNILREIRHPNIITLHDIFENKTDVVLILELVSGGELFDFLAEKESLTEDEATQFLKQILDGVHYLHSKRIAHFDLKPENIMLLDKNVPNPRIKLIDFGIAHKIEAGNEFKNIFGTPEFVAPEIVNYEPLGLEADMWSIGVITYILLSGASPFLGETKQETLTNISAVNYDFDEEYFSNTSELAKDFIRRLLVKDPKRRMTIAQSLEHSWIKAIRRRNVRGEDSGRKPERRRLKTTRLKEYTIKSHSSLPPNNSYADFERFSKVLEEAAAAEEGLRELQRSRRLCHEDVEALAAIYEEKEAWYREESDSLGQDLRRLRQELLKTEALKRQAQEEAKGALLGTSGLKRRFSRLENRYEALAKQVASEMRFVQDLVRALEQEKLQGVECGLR

T2 sequence (P43250 whole entry): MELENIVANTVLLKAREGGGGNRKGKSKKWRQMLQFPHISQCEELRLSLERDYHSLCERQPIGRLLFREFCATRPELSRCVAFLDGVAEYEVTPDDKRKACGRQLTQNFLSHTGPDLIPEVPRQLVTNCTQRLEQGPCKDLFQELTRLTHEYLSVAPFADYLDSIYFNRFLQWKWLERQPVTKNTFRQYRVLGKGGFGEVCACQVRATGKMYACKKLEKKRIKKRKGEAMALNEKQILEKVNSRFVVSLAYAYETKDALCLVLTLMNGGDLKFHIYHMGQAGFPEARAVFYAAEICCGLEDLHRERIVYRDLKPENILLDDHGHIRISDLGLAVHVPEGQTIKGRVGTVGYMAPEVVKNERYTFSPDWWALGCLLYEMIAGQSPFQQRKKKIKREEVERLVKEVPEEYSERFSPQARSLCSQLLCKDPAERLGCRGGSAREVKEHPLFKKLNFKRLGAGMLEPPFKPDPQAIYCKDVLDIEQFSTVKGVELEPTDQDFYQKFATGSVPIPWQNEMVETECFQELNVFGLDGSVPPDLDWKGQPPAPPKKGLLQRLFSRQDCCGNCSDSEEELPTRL
Sequence of Focal adhesion kinase 1 (Q05397 whole entry, the tested form may be a part): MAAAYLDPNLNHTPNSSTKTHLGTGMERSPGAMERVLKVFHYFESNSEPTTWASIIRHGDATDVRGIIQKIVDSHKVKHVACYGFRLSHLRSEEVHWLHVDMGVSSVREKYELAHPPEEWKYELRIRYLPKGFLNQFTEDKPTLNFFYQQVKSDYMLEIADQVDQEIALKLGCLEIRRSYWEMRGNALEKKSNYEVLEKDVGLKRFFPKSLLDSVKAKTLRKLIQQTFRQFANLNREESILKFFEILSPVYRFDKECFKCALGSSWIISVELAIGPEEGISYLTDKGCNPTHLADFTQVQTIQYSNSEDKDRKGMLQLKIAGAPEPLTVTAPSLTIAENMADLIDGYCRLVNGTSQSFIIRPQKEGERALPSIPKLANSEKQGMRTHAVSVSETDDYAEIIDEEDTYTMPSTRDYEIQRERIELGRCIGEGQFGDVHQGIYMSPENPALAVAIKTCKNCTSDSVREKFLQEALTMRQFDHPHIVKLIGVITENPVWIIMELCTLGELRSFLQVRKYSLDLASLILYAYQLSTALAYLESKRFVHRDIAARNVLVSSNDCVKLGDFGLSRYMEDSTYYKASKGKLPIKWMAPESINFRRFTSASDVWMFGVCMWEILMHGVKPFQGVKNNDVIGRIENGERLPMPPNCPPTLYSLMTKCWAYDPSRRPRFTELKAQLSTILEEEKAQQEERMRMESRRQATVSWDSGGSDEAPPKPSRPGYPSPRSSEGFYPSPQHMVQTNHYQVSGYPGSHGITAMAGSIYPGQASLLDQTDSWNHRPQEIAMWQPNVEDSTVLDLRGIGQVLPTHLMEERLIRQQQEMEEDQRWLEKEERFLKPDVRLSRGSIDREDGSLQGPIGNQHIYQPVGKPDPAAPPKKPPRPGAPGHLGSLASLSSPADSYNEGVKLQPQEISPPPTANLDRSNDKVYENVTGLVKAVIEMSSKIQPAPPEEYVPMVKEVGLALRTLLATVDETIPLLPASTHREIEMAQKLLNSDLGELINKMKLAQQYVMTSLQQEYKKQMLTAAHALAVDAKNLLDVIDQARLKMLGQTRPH
Sequence of Tyrosine-protein kinase JAK2 (O60674 whole entry, the tested form may be a part): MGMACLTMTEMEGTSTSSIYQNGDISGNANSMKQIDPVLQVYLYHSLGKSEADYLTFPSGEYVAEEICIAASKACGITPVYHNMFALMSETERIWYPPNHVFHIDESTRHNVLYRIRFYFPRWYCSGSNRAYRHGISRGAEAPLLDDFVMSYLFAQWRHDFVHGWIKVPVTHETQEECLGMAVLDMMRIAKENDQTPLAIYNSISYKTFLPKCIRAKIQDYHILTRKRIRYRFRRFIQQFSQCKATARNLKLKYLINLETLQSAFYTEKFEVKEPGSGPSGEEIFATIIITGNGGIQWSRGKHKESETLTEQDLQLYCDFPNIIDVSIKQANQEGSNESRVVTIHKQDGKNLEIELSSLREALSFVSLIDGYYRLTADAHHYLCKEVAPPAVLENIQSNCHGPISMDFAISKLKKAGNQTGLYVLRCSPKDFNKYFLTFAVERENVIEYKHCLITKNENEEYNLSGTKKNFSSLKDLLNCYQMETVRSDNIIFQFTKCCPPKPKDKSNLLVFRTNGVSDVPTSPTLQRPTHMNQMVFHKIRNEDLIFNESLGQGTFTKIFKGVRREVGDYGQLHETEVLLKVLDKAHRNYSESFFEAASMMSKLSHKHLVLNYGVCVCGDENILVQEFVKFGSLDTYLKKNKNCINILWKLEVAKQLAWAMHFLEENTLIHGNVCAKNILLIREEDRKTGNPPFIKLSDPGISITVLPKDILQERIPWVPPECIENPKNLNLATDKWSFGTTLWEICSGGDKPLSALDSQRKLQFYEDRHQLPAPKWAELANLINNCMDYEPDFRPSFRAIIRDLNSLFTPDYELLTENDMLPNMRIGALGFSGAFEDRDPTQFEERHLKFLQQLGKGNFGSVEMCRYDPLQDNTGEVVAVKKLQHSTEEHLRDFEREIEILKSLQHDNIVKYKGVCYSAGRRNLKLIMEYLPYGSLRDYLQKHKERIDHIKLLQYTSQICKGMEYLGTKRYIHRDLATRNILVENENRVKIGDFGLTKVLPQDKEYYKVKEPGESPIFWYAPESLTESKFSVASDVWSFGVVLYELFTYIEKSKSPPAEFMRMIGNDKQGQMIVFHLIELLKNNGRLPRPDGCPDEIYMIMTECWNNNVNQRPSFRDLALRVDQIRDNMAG
Sequence of G protein-coupled receptor kinase 4 (P32298 whole entry): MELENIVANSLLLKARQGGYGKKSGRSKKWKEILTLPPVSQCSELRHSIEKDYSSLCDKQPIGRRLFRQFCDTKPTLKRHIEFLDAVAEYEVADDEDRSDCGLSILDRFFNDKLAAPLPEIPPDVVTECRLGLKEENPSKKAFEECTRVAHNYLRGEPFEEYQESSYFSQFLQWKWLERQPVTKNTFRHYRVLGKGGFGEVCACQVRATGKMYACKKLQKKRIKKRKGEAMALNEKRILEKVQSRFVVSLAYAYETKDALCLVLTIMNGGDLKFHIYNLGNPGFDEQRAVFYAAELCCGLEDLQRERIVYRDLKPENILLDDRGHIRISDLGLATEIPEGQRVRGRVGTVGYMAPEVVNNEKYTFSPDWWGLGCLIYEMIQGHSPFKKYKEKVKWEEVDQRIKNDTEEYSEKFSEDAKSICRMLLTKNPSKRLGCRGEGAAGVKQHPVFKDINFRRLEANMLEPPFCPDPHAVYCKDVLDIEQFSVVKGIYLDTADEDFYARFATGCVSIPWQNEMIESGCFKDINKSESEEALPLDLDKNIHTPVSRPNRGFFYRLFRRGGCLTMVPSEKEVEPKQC
Sequence of Serine/threonine-protein kinase Chk2 (O96017 whole entry): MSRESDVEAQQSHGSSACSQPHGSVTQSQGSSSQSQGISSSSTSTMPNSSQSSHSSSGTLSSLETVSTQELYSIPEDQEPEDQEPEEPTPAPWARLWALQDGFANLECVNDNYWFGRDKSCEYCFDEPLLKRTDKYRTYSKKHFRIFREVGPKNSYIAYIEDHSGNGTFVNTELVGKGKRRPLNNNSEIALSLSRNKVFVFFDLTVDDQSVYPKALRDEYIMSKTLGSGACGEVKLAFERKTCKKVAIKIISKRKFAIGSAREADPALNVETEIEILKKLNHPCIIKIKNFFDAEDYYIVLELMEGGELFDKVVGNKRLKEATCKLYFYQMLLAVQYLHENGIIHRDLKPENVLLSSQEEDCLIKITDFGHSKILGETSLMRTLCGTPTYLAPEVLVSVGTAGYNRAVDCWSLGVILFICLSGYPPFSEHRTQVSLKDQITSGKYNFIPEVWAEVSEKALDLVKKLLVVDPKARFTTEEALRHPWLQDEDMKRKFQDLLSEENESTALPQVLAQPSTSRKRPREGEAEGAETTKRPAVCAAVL

IC50 [1]: 820 nM
IC50 [2]: > 10000 nM
IC50 [3]: 22 nM
IC50 [4]: 3.8 nM
IC50 [5]: > 10000 nM
IC50 (Aurora kinase A): 8900 nM
IC50 [6]: > 10000 nM
IC50 (Focal adhesion kinase 1): 220 nM
IC50 [7]: 8 nM
SMILES: CCc1cc(Nc2nc(NCc3ccc(Cl)cc3OC)nc3cccc(OC)c23)n[nH]1
IC50 [8]: 720 nM
